Source: patent publication US20230102836A1, “Amoebicidal Compositions for Contact Lens Solutions” (University of the West of Scotland, priority 2019, published 2023)
Several values for one entry are separate records, joined by “and”; a condition that tells them apart may be missing. Equal values may be shown once. Read-outs that look alike come from different tables or passages of the source.

Assays:
Assay type in all cases: cell-based, Acanthamoeba castellanii ATCC 50370
[1] = tested on: A. castellanii trophozoites; assay: SDS disintegration of QAC-treated trophozoites; details: QAC18-treated, 0.5% SDS for 30 min
Experimental: (§1) Acanthamoeba trophozoites ([…]) incubated without (FIG. 2A), with QAC18 at 37.5 μg/ml for 1 h at 25° C. (FIG. 2B), and 0.5% SDS for 30 min (FIG. 2C). QAC18 reduced trophozoites sizes from 29.02±0.23 (FIG. 2A) to 7.87 f 0.93 (FIG. 2B) which disintegrated after 30 min treatment with SDS (FIG. 2C).
(§2) Acanthamoeba castellanii ATCC 50370 trophozoites and cysts were cultured in Peptone Glucose (PG) medium and encystment medium (Chagla A H, Griffiths A J (1974) Microbiology: 85(1): 139-145) respectively at 25° C. Cysts were prepared by incubating trophozoites for 8 days in encystment medium and integrity validated with calcofluor (0.25 μg/ml) assay (Gatti S et al (2010) J. Med. Microbiol.; 59: 1324-1330) or sodium dodecyl sulfate (SDS, 0.5% w/v) disintegration assay (Dudley R et al (2005) Acta Trop.; 9: 100-8) and microscopic observation.

[2] = tested on: A. castellanii trophozoites; assay: Morphometric analysis of trophozoites
Experimental: as §1
A. castellanii trophozoites incubated with and without QAC for a duration determined by experimental protocol were examined microscopically and their sizes measured using the Open Laboratory (Improvision) calibration graticule. The mean body sizes were determined.

A. castellanii cysts [3] = assay: Cytotoxicity assay on cysts (trypan blue); details: Acanthamoeba castellanii
Experimental: as §2
The compounds used in this study all contained alkyl-carbon chains: three APCs [dodecyl-PC (APC12), tetradecyl-PC. (APC14) and hexadecyl-PC (APC16)] (Anatrace) and four QACs [docdecyl-TMAB (QAC12), tetradecyl-TMAB (QAC14), hexadecyl-TMAB (QAC16) and octadecyl-TMAB (QAC18)](Sigma). All were prepared to a stock concentration of 1 mg/ml and diluted as required by the experimental protocol in the cytotoxicity assays. A. castellanii trophozoites and cysts (at 10^5 cells/ml) with or without APCs or QACs (concentrations ranging from […] doubly diluted to 0.04 μg/ml to a final volume of 100 μl) in a 96-well plate were incubated at 25° C. for a duration determined by the experimental protocol.
(§3) For the combined assay, similar concentrations of QAC18 and APC16 were prepared and 18.75 μg/ml and 37.5 μg/ml of QAC12 added (to a final volume of 100 μl) were added to 10^5 cells/mi in a 96-well plate and later incubated at 25° C. for a duration determined by the experimental protocol. Resazurin (7-Hydroxy-31-phenoxazin-3-one 10-oxide; 5 mg/ml; McBride J et al (2005) J. Clin. Microbiol.; 43: 629-634) and trypan blue (0.4 μg/ml; Mafra C S P et al (2013) Investig. Ophthalmol. Vis. Si.; 54: 6363-6372) were then added to trophozoites and cysts respectively after being exposed to the compounds and the cell viability estimated microscopically and from changes in absorbance (at 595 nm and 570 nm) respectively.
Efficacy was expressed as a percentage of untreated controls for each drug concentration used and the data used to calculate the IC50. Cell density was estimated using the modified Neubaur hemocytometer and expressed as cells/ml.

[4] = tested on: A. castellanii trophozoites; assay: Combined assay with fixed QAC12 (alamarBlue); details: Acanthamoeba castellanii, 96 h, 96 h at 25° C.
Experimental: Acanthamoeba trophozoites (10^5 cells/ml. n=5/treatment) treated with 100 μg/ml doubly diluted to 0.06 μg/ml of QAC18 (a,b) or APC16 (c,d) for 96 h at 25° C. […] Similarly. APC16 alone at the same concentration (closed circle, FIG. 6C, FIG. 6D) in combination with QAC12 at 18.75 μg/ml (open squares, d) QAC12 at […] (open squares, FIG. 6C). Data are mean absorbance at 595 nm t SD; n=4 independent experiments performed in triplicates. IC50s were not statistically significant between QAC12 at both concentrations and QAC16 (p>0.05, FIG. 6A, FIG. 6B) but significant with APC16 (p<0.05, FIG. 6C, FIG. 6D).
as §3

[5] = tested on: A. castellanii trophozoites; assay: Drug wash-out / alamarBlue-reversion assay, trophozoites
A. castellanii cysts [6] = assay: Drug wash-out / alamarBlue-reversion assay, cysts; details: for Back transformation to trophozoites after drug wash-out: Cysts; for Back transformation to trophozoites after drug wash-out: key: +: indicates cells reverting back to trophozoites after washout; and capable of oxidizing reduced alamarBlue from blue to pink after 8 days; −: indicates cell that did not revert to trophozoites after wash-out and unable to oxidise reduced alamarBlue solution
Experimental: For the drug kinetic assay, viability was assessed by the linked alamarBlue-reversion assay. Drug-treated cysts were washed with PBS and fresh PG medium was added to allow reversion to trophozoites for 5 days, after which, alamar blue was added and viability estimated as described above.
The cysticidal activity of QAC16 to QAC18 strongly correlated with (a) the alkyl-carbon chain lengths (Table 2) and the duration of drug contact (FIG. 8H). Like trophozoites, death was via leakage judged by 40% and 50% increase in DNA and proteins in the external milieu after 1 h (FIGS. 9A and 9B). To investigate if the cyst were viable, a complementary viability assay that involved, drug washout, incubation in PG medium to allow reversion of viable cyst to trophozoite for 7 days, and estimation of viability using the oxidation of resazurin after 6 h.

CCCCCCCCCCCCCCCCCC[N+](C)(C)C.[Br-] [QAC18, octadecyltrimethyl ammonium bromide]
Disintegration of shrunk treated trophozoites by 0.5% SDS [1]: 92% | Reduction in trophozoite size relative to untreated [2]: 4 fold | Trophozoite size after treatment ([2]; 37.5 μg/ml for 1 h at 25° C. (FIG. 2B)): 7.87 | Trophozoite size after treatment ([2]; QAC18-treated trophozoites (FIG. 2B)): 7.87±0.93 μm | IC50 (A. castellanii cysts [3]; Table 2, read-out: IC50 A. castellanii cysts): 15 µg/mL and 38 µM | IC50 (A. castellanii cysts [3]; after 96 h, trypan blue viability assay, read-out: Estimated IC50 against matured cysts): 22 ± 0.04 µg/mL | IC50 ([4]; QAC12 fixed at 18.75 μg/ml, read-out: Estimated IC50 of QAC18 in combination with QAC12): 6.7 µg/mL | IC50 ([4]; QAC12 fixed at 37.5 μg/ml, read-out: Estimated IC50 of QAC18 in combination with QAC12): 6.9 µg/mL | IC50 ([4]; without QAC12, read-out: Estimated IC50 of QAC18 alone): 6.1 µg/mL | Back transformation to trophozoites after drug wash-out ([5]; 9.375 μg/ml, 1 h): + | Back transformation to trophozoites after drug wash-out ([5]; 9.375 μg/ml, 24 h): − | Back transformation to trophozoites after drug wash-out ([5]; 9.375 μg/ml, 48 h): − | Back transformation to trophozoites after drug wash-out ([5]; 9.375 μg/ml, 72 h): − | Back transformation to trophozoites after drug wash-out ([5]; 9.375 μg/ml, 96 h): − | Back transformation to trophozoites after drug wash-out ([5]; 18.75 μg/ml, 1 h): + | Back transformation to trophozoites after drug wash-out ([5]; 18.75 μg/ml, 24 h): − | Back transformation to trophozoites after drug wash-out ([5]; 18.75 μg/ml, 48 h): − | Back transformation to trophozoites after drug wash-out ([5]; 18.75 μg/ml, 72 h): − | Back transformation to trophozoites after drug wash-out ([5]; 18.75 μg/ml, 96 h): − | Back transformation to trophozoites after drug wash-out ([5]; 37.50 μg/ml, 1 h): − | Back transformation to trophozoites after drug wash-out ([5]; 37.50 μg/ml, 24 h): − | Back transformation to trophozoites after drug wash-out ([5]; 37.50 μg/ml, 48 h): − | Back transformation to trophozoites after drug wash-out ([5]; 37.50 μg/ml, 72 h): − | Back transformation to trophozoites after drug wash-out ([5]; 37.50 μg/ml, 96 h): − | Amoebotoxicity after wash-out and replacement with PG medium ([5]; after 24 h at 9.375 μg/ml): amoebotoxic | Amoebotoxicity after wash-out and replacement with PG medium ([5]; from 1 h onwards at 37.5 μg/ml): amoebotoxic | Resurgence of cysts after drug washout (A. castellanii cysts [6]; 18.75 μg/ml after 48 h): No resurgence | Resurgence of cysts after drug washout (A. castellanii cysts [6]; 37.5 μg/ml after 24 h): No resurgence | Back transformation to trophozoites after drug wash-out (A. castellanii cysts [6]; 9.375 μg/ml, 24 h): + | Back transformation to trophozoites after drug wash-out (A. castellanii cysts [6]; 9.375 μg/ml, 48 h): + | Back transformation to trophozoites after drug wash-out (A. castellanii cysts [6]; 9.375 μg/ml, 72 h): + | Back transformation to trophozoites after drug wash-out (A. castellanii cysts [6]; 18.75 μg/ml, 24 h): + | Back transformation to trophozoites after drug wash-out (A. castellanii cysts [6]; 18.75 μg/ml, 48 h): + | Back transformation to trophozoites after drug wash-out (A. castellanii cysts [6]; 18.75 μg/ml, 72 h): + | Back transformation to trophozoites after drug wash-out (A. castellanii cysts [6]; 37.50 μg/ml, 24 h): − | Back transformation to trophozoites after drug wash-out (A. castellanii cysts [6]; 37.50 μg/ml, 48 h): − | Back transformation to trophozoites after drug wash-out (A. castellanii cysts [6]; 37.50 μg/ml, 72 h): −
